Experimental findings from patent US20240400986A1, “MEMBRANE BOUND COMPOSITIONS AND METHODS RELATING TO SAME” (FLAGSHIP PIONEERING INNOVATIONS VII, LLC, priority 2021, published 2024) are described below.

Like-named read-outs stand apart in the source and are kept apart here. Where only a bound is given, the exact number is not on record here.

Series [1] concerns neuronal cell line derived from human neuroblastoma. In words: Small molecule compound screen of gigasome production in neuronal monocultures. The conditions noted are these: Homo sapiens, 24 h, read-out: Fold Change of Gigasomes Produced vs. DMSO.
The test system is the same in series [2]. The following applies: neuronal cells, 24 hours.
For series [3] the test system is unchanged. The conditions noted are these: human, 24 h.
Description: For the screening, a total of 99 compounds (TargetMol) were divided in 5 groups. Each group included an untreated condition, a vehicular DMSO control, and a known high-gigasome producing condition to comparatively study gigasome production rates. As a cell death control group, 500 nM Staurosporine was added to induce apoptosis. Cultures were incubated for 24 hours under gigasome inducing conditions at concentrations ranging between 10 nM and 10,000 nM. Before the end of the treatment, live neuronal cultures were imaged. The Zeiss ZEN Blue software was used to distribute imaging fields of view (positions) to create an unbiased imaging sample of a well. 5 images were taken using a Zeiss LSM 900 confocal microscope. […] The BioApps ZEN software package was used to perform cell nucleus segmentation and counting. After 24 hours, gigasomes were harvested from the cell culture media by gently removing from the top of each 96-well ⅔ of the total volume without disturbing the cell layer (containing the settled gigasomes) and by adding to each well the same amount of PBS. […] Cells remaining in the 96-well plates were assessed for viability using CellTiter-Glo (Promega).
Series [4] concerns neuronal cells. Briefly: Gigasome-mediated extraction of stress granule-associated protein HuR (fixed plates, confocal). The following applies: 5 μM sodium arsenite, 0.2 μM MG-132, alone or combined, 24 h. In kind it is cell-based, human. The method, then:
For this paradigm, cells were treated with a low sodium arsenite concentration of 5 μM either alone or in combination with the proteasome inhibitor MG-132 at 0.2 μM. A vehicular control amount of DMSO was added to the media to comparatively study cargo signals within cells and gigasomes. Treatments were carried out in reduced serum-containing media for 24 hours to mimic a chronic exposure to arsenite. The presence of the stress-granule-related cargo within cells and in gigasomes was characterized and quantified by confocal microscopy analysis of 4% paraformaldehyde. Non-specific labeling was blocked by incubation with 5% normal goat serum in PBS in the presence of 0.1% Triton X-100, for 2 h at room temperature, followed by immunolabeling with an antibody against the RNA-binding protein HuR (see Table 12) and incubation with Alexa Fluor® 568 secondary antibodies. Phalloidin Alexa Fluor® 488 was used to mark the proximal plasma membrane. Nuclei were counterstained with DAPI.
Images were captured using a Zeiss LSM 900 confocal microscope and a 40× objective. For analysis, 10×16-bit images per well were processed to obtain a final total range of 75-200 cells. Composite images were separated in the different channels. The background was subtracted from the red cargo-related channel, as described in Example 13a. The nuclear signal in the blue channel was thresholded using the “Yen” autothreshold algorithm. To measure the nuclear-to-cytosolic translocation of the stress-granule-related protein cargo upon treatment, firstly, the cargo-related nuclear signal was subtracted from the respective red channel image by creating a nuclear selection from the thresholded blue channel image, which was added to ImageJ Manager. The nuclear selection was then transferred to the background-subtracted red channel and the nuclear cargo signal was removed from the image leaving only the cytosolic signal. The cleared red channel image was thresholded using the “default” autothreshold algorithm for downstream particle analysis. To measure the cytosolic cargo signal, a cellular mask was then generated by thresholding the Green/F-actin channel using the “Li” autothreshold method. A cytosolic selection was created, added to ImageJ Manager, and transferred to the background subtracted, nuclear-cleared red channel image. The cytosolic cargo signal (integrated density) was measured and normalized to the number of nuclei counted in each field. Particle analysis was performed as described in Example 13a, using the thresholded green channel to identify particles of interest by filtering by area and circularity and re-directing to the blue and red channel for absence of nuclear signal and eventual presence of disease-related cargo, respectively. The quantity or distribution of objects obtained from the particle analysis was obtained as described in Example 13a.

Series [5] concerns neuronal cells. In words: Gigasome-mediated extraction of APP-CTFs upon γ-secretase and proteasome inhibition (fixed plates, confocal). It is filed as cell-based, human. The following applies: γ-secretase inhibitor 5 μM, MG-132 0.1 μM, alone or combined; 24 h; compared to DMSO. The method, then: Cells were treated with the γ-secretase inhibitor L-685,458 at 5 μM, either alone or in combination with the proteasome inhibitor MG-132 at 0.1 μM. A vehicular control amount of DMSO was added to the media to comparatively study cargo signals within cells and gigasomes. Treatments were carried out in reduced serum-containing media (3% FBS) for 24 hours. Disease-related cargo presence within cells and in gigasomes was characterized and quantified by confocal microscopy analysis of 4% paraformaldehyde fixed cells, following (immuno)fluorescent labeling of cytosolic, nuclear and cargo-specific protein markers. In some experiments β-III tubulin and Alexa Fluor® 488 phalloidin were used to mark the cytosol and proximal plasma membrane, respectively. To detect APP-CTFs, an antibody against the C-terminus of APP (C-APP) was used (see Table 12). Non-specific labeling was blocked by incubation with 5% normal goat serum in PBS in the presence of 0.05% saponin, for 1 h at room temperature. Primary antibodies were incubated overnight at 4° C., followed by incubation with Alexa Fluor®-conjugated secondary antibodies for 1 hour at room temperature. Nuclei were counterstained with DAPI.
A range of 5-8 images per well were taken from replicate experiments to capture a final total range of 150-200 cells. […] The cellular cargo fluorescence intensity in the red channel was quantified by subtracting the background signal from each image, using the ImageJ built-in “subtract background” function with a default rolling ball radius of 50 pixel. The cargo signal (integrated density) in the red channel was measured and normalized to the number of nuclei counted in each field. […]
For particle analysis, the cytosolic and F-actin/membrane signals were merged into single RGB image, converted to grayscale and then thresholded to create a cellular mask of objects in the field of view, as calculated by the “Li” autothreshold algorithm. […] The quantity or distribution of objects obtained from the particle analysis was divided by the number of cells counted in each field to obtain a normalized quantity or distribution.

For `Cn1cncc1[C@@](N)(c1ccc(Cl)cc1)c1ccc2c(c1)c(-c1cccc(Cl)c1)cc(=O)n2C` [Tipifarnib], in series [1], the fold induction at 0.01 µM is 0.75 to 1. In series [1], the fold induction at 0.1 µM was 1.5 to 1.75. The fold induction at 1 µM in series [1] fell in the range of 1.75 to 2. The “Number of Gigasomes Produced” value in series [2] (dose 10 nM) is given as less than 35; in series [2] (dose 100 nM) it was 55-65; in series [2] (dose 1000 nM) it was 65-75. Moreover, the Viability in series [3] (10 nM) was more than 75%; in series [3] (100 nM), more than 75%; in series [3] (1000 nM), 50-75%.
Regarding `O=[As]O` [sodium arsenite], in the series with neuronal cells [4] (compared to DMSO (FIG. 7B)), the HuR cytosolic signal entry is reported as “increased”. The “gigasomes per 1000 cells” value with neuronal cells [4] (fixed plates (FIG. 7C)) was found to be 200 per 1000 cells.
Take `CC(C)C[C@H](NC(=O)[C@H](Cc1ccccc1)C[C@@H](O)[C@H](Cc1ccccc1)NC(=O)OC(C)(C)C)C(=O)N[C@@H](Cc1ccccc1)C(N)=O` [γ-secretase inhibitor, L-685,458]: in the series with neuronal cells [5], the “intracellular APP-CTF levels (C-APP immunoreactivity)” value was “increase”.
